In patent US20220306585A1, “PYRAZOLE DERIVATIVES FOR CONTROLLING ARTHROPODS” (Bayer Animal Health GmbH, priority 2019, published 2022):
Converted amounts (≈) assume the structure as drawn.

Experiments:
[1] = Measurement of solubility in buffer at pH 6.5; type: physicochemical; conditions: aqueous buffer, kinetic from dmso stock; PBS buffer pH 6.5, shaken 24 h at rt, LC-MSMS; read-out: Solubility of example compounds at pH 6.5
Experimental: Measurement of Solubility in Buffer at pH 6.5 2-4 mg of the test compound are dissolved in DMSO to reach a concentration of 50 g/L (solution A). To 10 μL of this solution 960 μL PBS buffer pH 6.5 are added (final concentration: […]); the mixture is shaken for 24 h at rt in a 96 well plate. An aliquot is centrifuged at 42000 rpm für 30 min. The supernatant is diluted with acetonitrile/water (8:2) 1:10 and 1:1000 resp. This diluted samples are analyzed by LC-MSMS. Calibration: 10 μL of solution A are diluted with 823 μL DMSO (final concentration: 600 μg/mL), which is further diluted with acetonitrile/water 8:2 by a factor of 100 (provides solution B). The calibration curve is obtained from solution B by further diluting with acetonitrile/water 8:2 with target concentrations of 1.2-12-60-600 ng/mL and injecting these four solutions for MS measurement. PBS-Puffer: 6.18 g sodium chloride and 3.96 g sodium dihydrogen phosphate are dissolved in 1 L aqua dist., the pH is adjusted to 6.5 with IN sodium hydroxide.

[2] = Measurement of stability of prodrugs in buffer at pH 7.4; type: physicochemical; conditions: PBS buffer pH 7.4, 37° C., HPLC peak area, read-out: % Recovery after 24 h (stability at pH 7.4)
Experimental: Preparation of the PBS buffer solution pH 7.4: 90 g sodium chloride, 13.61 g potassium dihydrogen phosphate, 83.35 g 1M aqueous sodium hydroxide were dissolved in water. More water was added up to a total volume of 1 L. This solution was diluted 1:10 with water. Eventually, pH was adjusted to pH 7.4 by the addition of phosphoric acid.
Measurement of Stability of Prodrugs in Buffer at pH 7.4
0.15 mg of the test compound were dissolved in 0.1 mL dimethylsulfoxide and 0.4 mL acetonitrile. For complete dissolution, the HPLC vial with the sample solution was shaken and treated with ultrasound. Then, 1.0 mL of PBS buffer solution pH 7.4 was added and the sample was vortexed. The sample solution was analysed by HPLC (method 8) to determine the amount of the test compound at a particular time over a period of 24 h at 37° C. The peak areas, given as percentage of total area, are used for quantification. In addition, the reaction mixture was analysed by method 9 (HPLC-MS) at the final timepoint.

[3] = Degradation of prodrugs and release of parent drug in rat plasma; type: in vitro ADME; conditions: male, Hannover-Janvier RjHan, rat plasma (Li-heparin), 37° C., percent area of prodrug at t0
Experimental: Measurement of Release of Parent Drug in Rat Plasma 1 mg of the test compound was dissolved in 0.5 mL acetonitrile/dimethylsulfoxide 9:1. For complete dissolution the HPLC vial was shaken and treated with ultrasound. 20 μL of this solution were added to 1 mL of rat plasma (Li-heparin plasma, Hannover-Janvier rat, RjHan male) with vortexing at a temperature of 37° C. Aliquots (100 μL each) were taken at 0.17, 0.5, 1, 1.5, 2 and 4 hours. Each aliquot was transferred to a vial containing 300 μL of acetonitrile/citric acid buffer pH 3 8:2. These solutions were centrifuged at 5000 rpm for 10 minutes. The supernatant was analysed by HPLC (Method 8) to determine the amount of the test compound. In addition, the reaction mixture was analysed by method 9 (HPLC-MS) at the final timepoint. Both decrease of the prodrug concentration and increase of parent drug concentration were monitored. All data is given as percent area of the prodrug at to.

[4] = test system: Ctenocephalides felis adult; test: Antiparasitic activity after administration to rats: fleas; type: in vivo; conditions: for In-vivo Efficacy SD2 / In-vivo Efficacy SD9 / In-vivo Efficacy SD16 / In-vivo Efficacy SD23 / In-vivo Efficacy SD30 / In-vivo Efficacy SD37: Ctenocephalides felis adult; for In-vivo Efficacy SD2: study day 2; for In-vivo Efficacy SD9: study day 9; for In-vivo Efficacy SD16: study day 16; for In-vivo Efficacy SD23: study day 23; for In-vivo Efficacy SD30: study day 30; for In-vivo Efficacy SD37: study day 37; for flea efficacy on rats compared with parent drug: sc, versus parent drug also injected subcutaneously
Experimental: (§1) Measurement of the Antiparasitic Activity after Administration of a Prodrug to Rats Compounds were dissolved in the appropriate volume of glycerol formal (p.a.) just before application to the animals (dose volume was adjusted to 0.03 mL/kg bodyweight). 5 rats per group were either injected intraperitoneally or subcutaneously. Rats were infested with 30 Dermacentor variabilis nymphs on study days −2, 7, 14, 21, 28, 35 and 30 adult Ctenocephalides fleas on study days −1, 8, 15, 22, 29, 36. Parasite counts were performed on study days 2, 9, 16, 23, 30, 37. Percent efficacy was calculated as arithmetic mean parasite numbers as life attached tick numbers and live flea numbers of the respective study group in comparison to parasite counts on a placebo-treated control group. Infestation of groups with less than 75% efficacy on two consecutive counting occasions will terminated for the respective parasite.

[5] = test system: Dermacentor variabilis nymph; test: Antiparasitic activity after administration to rats: ticks; type: in vivo; conditions: for In-vivo Efficacy SD2 / In-vivo Efficacy SD9 / In-vivo Efficacy SD16 / In-vivo Efficacy SD23 / In-vivo Efficacy SD30 / In-vivo Efficacy SD37: Dermacentor variabilis nymph; for In-vivo Efficacy SD2: study day 2; for In-vivo Efficacy SD9: study day 9; for In-vivo Efficacy SD16: study day 16; for In-vivo Efficacy SD23: study day 23; for In-vivo Efficacy SD30: study day 30; for In-vivo Efficacy SD37: study day 37; for tick efficacy on rats compared with parent drug: sc, versus parent drug also injected subcutaneously
Experimental: as §1

SMILES	solubility at 24 h [1] [µg/mL]	recovery at 24 h, 0.1 mg/mL [2] [%]	recovery at 0.17 h, 39 µg/mL [3] [%]	recovery at 0.5 h, 39 µg/mL [3] [%]	recovery at 1 h, 39 µg/mL [3] [%]	recovery at 1.5 h, 39 µg/mL [3] [%]	recovery at 2 h, 39 µg/mL [3] [%]	recovery at 4 h, 39 µg/mL [3] [%]	flea efficacy on rats compared with parent drug [4]	tick efficacy on rats compared with parent drug [5]	other results
Cn1nc(C(F)(F)C(F)(F)F)c(C(F)(F)F)c1-n1cc(-c2ccc(Cl)c(C(=O)N(COC(=O)C3CC3C(=O)O)C3(C#N)CC3)c2)cn1 (centres unmarked) [Example 1, 2-({[{2-Chloro-5-[2′-methyl-5′-(pentafluoroethyl)-4′-(trifluoromethyl)-2′H-[1,3′-bipyrazol]-4-yl]benzoyl}(1-cyanocyclopropyl)amino]methoxy}carbonyl)cyclopropane-1-carboxylic acid]	331 (≈ 476 µM)	100	93	88	80	74	66	49	superior	superior	–
N#CC1(N(COC(=O)c2ccc(C(=O)O)cc2)C(=O)c2cc(-c3cnn(-c4c(Cl)cc(C(F)(C(F)(F)F)C(F)(F)F)cc4OC(F)(F)F)c3)ccc2Cl)CC1 [Example 3, 4-({[(2-Chloro-5-{1-[2-chloro-4-(1,1,1,2,3,3,3-heptafluoropropan-2-yl)-6-(trifluoromethoxy)phenyl]-1H-pyrazol-4-yl}benzoyl)(1-cyanocyclopropyl)amino]methoxy}carbonyl)benzoic acid]	3 (≈ 3.63 µM)	99	100	100	100	100	100	100	–	–	In-vivo Efficacy SD2 ([4]; 12.74 mg/kg sc): 100%; In-vivo Efficacy SD9 ([4]; 12.74 mg/kg sc): 100%; In-vivo Efficacy SD16 ([4]; 12.74 mg/kg sc): 100%; In-vivo Efficacy SD23 ([4]; 12.74 mg/kg sc): 96%; In-vivo Efficacy SD30 ([4]; 12.74 mg/kg sc): 80%; In-vivo Efficacy SD37 ([4]; 12.74 mg/kg sc): 55%; In-vivo Efficacy SD2 ([5]; 12.74 mg/kg sc): 99%; In-vivo Efficacy SD9 ([5]; 12.74 mg/kg sc): 98%; In-vivo Efficacy SD16 ([5]; 12.74 mg/kg sc): 93%; In-vivo Efficacy SD23 ([5]; 12.74 mg/kg sc): 96%; In-vivo Efficacy SD30 ([5]; 12.74 mg/kg sc): 85%; In-vivo Efficacy SD37 ([5]; 12.74 mg/kg sc): 48%
Cn1nc(C(F)(F)C(F)(F)F)c(C(F)(F)F)c1-n1cc(-c2ccc(Cl)c(C(=O)N(COC(=O)CCCC(=O)O)C3(C#N)CC3)c2)cn1 [Example 4, 5-{[{2-Chloro-5-[2′-methyl-5′-(pentafluoroethyl)-4′-(trifluoromethyl)-2′H-[1,3′-bipyrazol]-4-yl]benzoyl}(1-cyanocyclopropyl)amino]methoxy}-5-oxopentanoic acid]	179 (≈ 257 µM)	100	73	42	18	9	0	0	superior	superior	–

Second part, led by results:

solubility at 24 h [1] [µg/mL]	recovery at 24 h, 0.1 mg/mL [2] [%]	recovery at 0.17 h, 39 µg/mL [3] [%]	recovery at 0.5 h, 39 µg/mL [3] [%]	recovery at 1 h, 39 µg/mL [3] [%]	recovery at 1.5 h, 39 µg/mL [3] [%]	recovery at 2 h, 39 µg/mL [3] [%]	recovery at 4 h, 39 µg/mL [3] [%]	SMILES	flea efficacy on rats compared with parent drug [4]	tick efficacy on rats compared with parent drug [5]	other results
10 (≈ 12.6 µM)	100	89	77	66	56	48	29	N#CC1(N(COC(=O)CCCC(=O)O)C(=O)c2cc(-c3cnn(-c4c(Cl)cc(C(F)(C(F)(F)F)C(F)(F)F)cc4OC(F)(F)F)c3)ccc2Cl)CC1 [Example 9, 5-{[(2-Chloro-5-{1-[2-chloro-4-(1,1,1,2,3,3,3-heptafluoropropan-2-yl)-6-(trifluoromethoxy)phenyl]-1H-pyrazol-4-yl}benzoyl)(1-cyanocyclopropyl)amino]methoxy}-5-oxopentanoic acid]	–	–	In-vivo Efficacy SD2 ([4]; 12.22 mg/kg sc): 100%; In-vivo Efficacy SD9 ([4]; 12.22 mg/kg sc): 97%; In-vivo Efficacy SD16 ([4]; 12.22 mg/kg sc): 96%; In-vivo Efficacy SD23 ([4]; 12.22 mg/kg sc): 97%; In-vivo Efficacy SD30 ([4]; 12.22 mg/kg sc): 91%; In-vivo Efficacy SD37 ([4]; 12.22 mg/kg sc): 46%; In-vivo Efficacy SD2 ([5]; 12.22 mg/kg sc): 99%; In-vivo Efficacy SD9 ([5]; 12.22 mg/kg sc): 100%; In-vivo Efficacy SD16 ([5]; 12.22 mg/kg sc): 96%; In-vivo Efficacy SD23 ([5]; 12.22 mg/kg sc): 98%; In-vivo Efficacy SD30 ([5]; 12.22 mg/kg sc): 85%; In-vivo Efficacy SD37 ([5]; 12.22 mg/kg sc): 49%
5 (≈ 6 µM)	100	98	96	92	89	86	74	N#CC1(N(COC(=O)[C@H]2CC[C@H](C(=O)O)CC2)C(=O)c2cc(-c3cnn(-c4c(Cl)cc(C(F)(C(F)(F)F)C(F)(F)F)cc4OC(F)(F)F)c3)ccc2Cl)CC1 [Example 11, (trans)-4-({[(2-Chloro-5-{1-[2-chloro-4-(1,1,1,2,3,3,3-heptafluoropropan-2-yl)-6-(trifluoromethoxy)phenyl]-1H-pyrazol-4-yl}benzoyl)(1-cyanocyclopropyl)amino]methoxy}carbonyl)cyclohexane-1-carboxylic acid]	–	–	In-vivo Efficacy SD2 ([4]; 12.84 mg/kg sc): 100%; In-vivo Efficacy SD9 ([4]; 12.84 mg/kg sc): 100%; In-vivo Efficacy SD16 ([4]; 12.84 mg/kg sc): 100%; In-vivo Efficacy SD23 ([4]; 12.84 mg/kg sc): 100%; In-vivo Efficacy SD30 ([4]; 12.84 mg/kg sc): 97%; In-vivo Efficacy SD37 ([4]; 12.84 mg/kg sc): 76%; In-vivo Efficacy SD2 ([5]; 12.84 mg/kg sc): 100%; In-vivo Efficacy SD9 ([5]; 12.84 mg/kg sc): 100%; In-vivo Efficacy SD16 ([5]; 12.84 mg/kg sc): 100%; In-vivo Efficacy SD23 ([5]; 12.84 mg/kg sc): 100%; In-vivo Efficacy SD30 ([5]; 12.84 mg/kg sc): 96%; In-vivo Efficacy SD37 ([5]; 12.84 mg/kg sc): 71%
